Source: patent US20220323406A1, “METHODS AND COMPOSITIONS FOR DIFFERENTIATING STEM CELLS” (Massachusetts Institute of Technology, priority 2019, published 2022)
“Also recorded” adds a separate entry of the source.

How the values were obtained:
[1] = system: ENR+CD organoids, stem II/III cells; assay: Single-cell RNA-sequencing (Seq-Well) of organoid differentiation time course; format: cell-based, mouse
Source text: For time points beyond 2 days, media was refreshed every other day. Following the Seq-Well protocol Applicants followed a standard library preparation, sequencing, and alignment process (see Methods).
Single-cell RNA-sequencing. A single-cell suspension was obtained from organoids cultured under conditions for the differentiation time course as described above. Applicants utilized the Seq-Well platform for massively parallel scRNA-seq to capture transcriptomes of single cells on barcoded mRNA capture beads. […] In brief, 20,000 cells from one organoid condition were loaded onto one array containing 100,000 barcoded mRNA capture beads. The loaded arrays containing cells and beads were then sealed using a polycarbonate membrane with a pore size of 0.01 μm, which allows for exchange of buffers but retains biological molecules confined within each microwell. Subsequent exchange of buffers allows for cell lysis, transcript hybridization, and bead recovery before performing reverse transcription en masse. Following reverse transcription and exonuclease treatment to remove excess primers, PCR amplification was carried out using KAPA HiFi PCR Mastermix with 2,000 beads per 50 μL reaction volume. Libraries were then pooled and purified using Agencourt AMPure XP beads (Beckman Coulter, A63881) by a 0.6×SPRI followed by a 0.8×SPRI and quantified using Qubit hsDNA Assay (Thermo Fisher). Libraries were constructed using the Nextera Tagmentation method on a total of 800 pg of pooled cDNA library per sample. […] Arrays were sequenced with an Illumina NovaSeq System. The read structure was paired end with Read 1 starting from a custom read 1 primer containing 20 bases with a 12 bp cell barcode and 8 bp unique molecular identifier (UMI) and Read 2 being 50 bases containing transcript information.
Single-cell RNA-sequencing computational pipelines and analysis.

[2] = system: ENR+CD organoids (ISC to Paneth cell differentiation); assay: Secondary (validation) screen: LYZ.NS basal lysozyme secretion, 2.5-D 384-well ENR+CD organoids; format: cell-based, mouse; conditions: for Dose.FC.LYZ.NS: 6-day ENR+CD, vs ENR+CD+DMSO
[3] = Animal study: oral gavage every other day for two weeks, body weight; format: in vivo, mouse
Method: Following a similar protocol as previously reported for SINE treatment in the context of cancer (Arango et al., 2017; Azmi et al., 2013; Hing et al., 2016; Zheng et al., 2014), KPT-330 was administered at a dose 10 mg/kg via oral gavage every other day over a two-week span in C57BL/6 wild-type mice, and body weight was monitored for any clear toxicity. […] Given animal weight loss on the standard chemotherapeutic dosage regimen, and additional evidence that sustained dosage of SINEs adversely impacts T cell populations (Tyler et al., 2017), Applicants sought to explore dosing regimens well below 10 mg/kg, to see if a pro-Paneth phenotype may exist below potential toxicities. […] Applicants tracked animal weight every other day, and at day 14 collected the proximal and distal thirds of the small intestine for histological quantification of Paneth, stem, and goblet populations (FIG. 26A). […] Paneth cells were counted within well preserved crypts, with at minimum 30 crypts quantified per animal (representative images FIG. 30C) and then averaged to get mean Paneth cells per crypt in distal and proximal thirds of the small intestine. […] Applicants additionally quantified the abundance of Olfm4+ stem cells as well as PAS+ goblet cells within the same animals to ascertain whether the effect of SINE treatment was restricted to the Paneth cell compartment (representative images FIG. 30D,E). […]

[4] = system: ENR+CD organoids; assay: Secondary (validation) screen: ATP (CTG) assay, 2.5-D 384-well ENR+CD organoids; format: cell-based, mouse; conditions: 6-day ENR+CD, vs ENR+CD+DMSO
[5] = stem II/III, day 0.25-2, FDR<0.05

In the case of `O=C(/C=C\n1cnc(-c2cc(C(F)(F)F)cc(C(F)(F)F)c2)n1)NNc1cnccn1` [KPT-330], the “day 6 Paneth cell odds ratio (OR), treated vs control” value ([1]; 160 nM KPT-330 in ENR+CD) is reported as roughly 2, the “organoid cell type composition over differentiation time course” value ([1]; 160 nM KPT-330 in ENR+CD vs ENR+CD, day 0.25-6) is reported as “enhances stem conversion to mature cells; also recorded: relative depletion of stem I (and stem II & III) and enteroendocrine cells over time along with the corresponding enrichment of enterocytes and Paneth cells” and the “Atf3 (ATF3) expression” value ([1]; KPT-330 treated vs control cells) is reported as “upregulated”. The “active / quiescent ISC signature in early stem cell populations” value ([1]; early stem II/III cells) was “induces a quiescent ISC signature and reduces an active ISC signature; also recorded: transition into quiescence”, the “GSEA hallmark programs: mitogen-driven signaling (E2F, MYC targets, G2M checkpoint)” value [1, 5] was “suppresses programs downstream of mitogen-driven signaling” and the “GSEA hallmark programs: stress response (NFkB signaling, hypoxia, inflammatory response)” value [1, 5] was “up-regulating programs broadly resembling a complex stress response”. For the same compound, the Dose.FC.LYZ.NS ([2]; 0.02 uM) was −0.005 log2 fold change, the Dose.FC.LYZ.NS ([2]; 0.04 uM) was −0.040 log2 fold change and the Dose.FC.LYZ.NS ([2]; 0.08 uM) was 0.142 log2 fold change. For the same compound, the “validated doses in secondary screen (SSMD above cutoff in both LYZ assays)” value ([2]; LYZ.NS and LYZ.S) was “multiple validated doses”, the Dose.FC.LYZ.NS ([2]; […]) was 0.244 log2 fold change and the “increase in basal LYZ secretion (LYZ.NS) relative to ENR+CD control” value ([2]; validated dose-treatments, mean fold change vs ENR+CD+DMSO) was 50-75%. For the same compound, the body weight ([3]; 10 mg/kg oral gavage every other day) was “significant weight loss”, the body weight ([3]; 0.2, 0.05 and 0.01 mg/kg oral gavage every other day) was “no significant changes in animal weight at any dose” and the Dose.FC.CTG ([4]; 0.02 uM) was 0.126 log2 fold change. It also gave a Dose.FC.CTG ([4]; 0.04 uM) of 0.029 log2 fold change, a Dose.FC.CTG ([4]; 0.08 uM) of 0.141 log2 fold change and a Dose.FC.CTG ([4]; […]) of 0.120 log2 fold change.
